Measured values: the NIST ThermoML archive (doi:10.1021/acs.jced.5b00259)
Numbers after ± are expanded uncertainties.

Tests used:
[1] = 100 kPa, Liquid
[2] = xn = mol fraction of the nth substance listed; details: 100 kPa, Liquid, x2 = 0

**Q.** Which mass density ([1]; 293.15 K) does the source give for `CC[NH+]=C(N(C)C)N(C)C.O=S(=O)([N-]S(=O)(=O)C(F)(F)F)C(F)(F)F` here?
**A.** 1414.89 ± 12 kg/m3

**Q.** And the viscosity ([1]; 293.15 K)?
**A.** 74.61 ± 5.5 mPa·s

**Q.** And the mass density ([1]; 298.15 K)?
**A.** 1410.03 ± 12 kg/m3

**Q.** And the viscosity ([1]; 298.15 K)?
**A.** 58.86 ± 2.3 mPa·s

**Q.** What about the mass density ([1]; 303.15 K) of the same compound?
**A.** 1405.19 ± 12 kg/m3

**Q.** And the viscosity ([1]; 303.15 K)?
**A.** 47.27 ± 2.3 mPa·s

**Q.** What about the mass density ([1]; 308.15 K) of the same compound?
**A.** 1400.38 ± 12 kg/m3

**Q.** What about the viscosity ([1]; 308.15 K) of the same compound?
**A.** 38.71 ± 1.8 mPa·s

**Q.** And the mass density ([1]; 313.15 K)?
**A.** 1395.59 ± 12 kg/m3

**Q.** And the viscosity ([1]; 313.15 K)?
**A.** 32.2 ± 1.5 mPa·s

**Q.** And the mass density ([1]; 318.15 K)?
**A.** 1390.8 ± 12 kg/m3

**Q.** And the viscosity ([1]; 318.15 K)?
**A.** 27.09 ± 1.3 mPa·s

**Q.** What about the mass density ([1]; 323.15 K) of the same compound?
**A.** 1386.03 ± 12 kg/m3

**Q.** What about the viscosity ([1]; 323.15 K) of the same compound?
**A.** 23.14 ± 1.1 mPa·s

**Q.** What does the source list for `CCO` [ethanol] + CCOS(=O)(=O)[O-].CC[NH+]=C(N(C)C)N(C)C?
**A.** mass density ([2]; 293.15 K): 789.62 ± 0.46 kg/m3; viscosity ([2]; 293.15 K): 1.177 ± 0.047 mPa·s; mass density ([2]; 298.15 K): 785.25 ± 0.47 kg/m3; viscosity ([2]; 298.15 K): 1.071 ± 0.043 mPa·s; mass density ([2]; 303.15 K): 780.89 ± 0.47 kg/m3; viscosity ([2]; 303.15 K): 0.978 ± 0.04 mPa·s; mass density ([2]; 308.15 K): 776.52 ± 0.48 kg/m3; viscosity ([2]; 308.15 K): 0.895 ± 0.036 mPa·s; mass density ([2]; 313.15 K): 772.12 ± 0.49 kg/m3; viscosity ([2]; 313.15 K): 0.822 ± 0.033 mPa·s; mass density ([2]; 318.15 K): 767.71 ± 0.49 kg/m3; viscosity ([2]; 318.15 K): 0.756 ± 0.031 mPa·s; mass density ([2]; 323.15 K): 763.26 ± 0.5 kg/m3; viscosity ([2]; 323.15 K): 0.698 ± 0.028 mPa·s

**Q.** Which mass density ([2]; 293.15 K) does the source give for `CCCO` [propan-1-ol] + CC[NH+]=C(N(C)C)N(C)C.O=S(=O)([N-]S(=O)(=O)C(F)(F)F)C(F)(F)F here?
**A.** 803.49 ± 0.43 kg/m3

**Q.** What about the viscosity ([2]; 293.15 K) of the same compound?
**A.** 2.164 ± 0.087 mPa·s

**Q.** And the mass density ([2]; 298.15 K)?
**A.** 799.49 ± 0.44 kg/m3

**Q.** What about the viscosity ([2]; 298.15 K) of the same compound?
**A.** 1.948 ± 0.078 mPa·s

**Q.** What about the mass density ([2]; 303.15 K) of the same compound?
**A.** 795.46 ± 0.45 kg/m3

**Q.** What about the viscosity ([2]; 303.15 K) of the same compound?
**A.** 1.707 ± 0.069 mPa·s

**Q.** And the mass density ([2]; 308.15 K)?
**A.** 791.39 ± 0.45 kg/m3

**Q.** What about the viscosity ([2]; 308.15 K) of the same compound?
**A.** 1.525 ± 0.061 mPa·s

**Q.** And the mass density ([2]; 313.15 K)?
**A.** 787.29 ± 0.46 kg/m3

**Q.** And the viscosity ([2]; 313.15 K)?
**A.** 1.366 ± 0.055 mPa·s

**Q.** And the mass density ([2]; 318.15 K)?
**A.** 783.14 ± 0.46 kg/m3

**Q.** And the viscosity ([2]; 318.15 K)?
**A.** 1.228 ± 0.05 mPa·s

**Q.** What about the mass density ([2]; 323.15 K) of the same compound?
**A.** 778.93 ± 0.47 kg/m3

**Q.** What about the viscosity ([2]; 323.15 K) of the same compound?
**A.** 1.107 ± 0.045 mPa·s

**Q.** For `CCO` [ethanol] + CC[NH+]=C(N(C)C)N(C)C.O=S(=O)([N-]S(=O)(=O)C(F)(F)F)C(F)(F)F, which mass density ([2]; 293.15 K) is on record?
**A.** 789.62 ± 0.46 kg/m3

**Q.** What about the viscosity ([2]; 293.15 K) of the same compound?
**A.** 1.177 ± 0.047 mPa·s

**Q.** What about the mass density ([2]; 298.15 K) of the same compound?
**A.** 785.25 ± 0.47 kg/m3

**Q.** What about the viscosity ([2]; 298.15 K) of the same compound?
**A.** 1.071 ± 0.043 mPa·s

**Q.** And the mass density ([2]; 303.15 K)?
**A.** 780.89 ± 0.47 kg/m3

**Q.** And the viscosity ([2]; 303.15 K)?
**A.** 0.978 ± 0.04 mPa·s

**Q.** And the mass density ([2]; 308.15 K)?
**A.** 776.52 ± 0.48 kg/m3

**Q.** And the viscosity ([2]; 308.15 K)?
**A.** 0.895 ± 0.036 mPa·s

**Q.** And the mass density ([2]; 313.15 K)?
**A.** 772.12 ± 0.49 kg/m3

**Q.** What about the viscosity ([2]; 313.15 K) of the same compound?
**A.** 0.822 ± 0.033 mPa·s

**Q.** What about the mass density ([2]; 318.15 K) of the same compound?
**A.** 767.71 ± 0.49 kg/m3

**Q.** And the viscosity ([2]; 318.15 K)?
**A.** 0.756 ± 0.031 mPa·s

**Q.** What about the mass density ([2]; 323.15 K) of the same compound?
**A.** 763.26 ± 0.5 kg/m3

**Q.** What about the viscosity ([2]; 323.15 K) of the same compound?
**A.** 0.698 ± 0.028 mPa·s

**Q.** With `CCOS(=O)(=O)[O-].CC[NH+]=C(N(C)C)N(C)C` [2-ethyl-1,1,3,3-tetramethylguanidinium ethyl sulfate] as the compound, how does the mass density ([1]; 293.15 K) read?
**A.** 1170.76 ± 1.5 kg/m3

**Q.** What about the viscosity ([1]; 293.15 K) of the same compound?
**A.** 673.4 ± 300 mPa·s

**Q.** And the mass density ([1]; 298.15 K)?
**A.** 1167.24 ± 1.5 kg/m3

**Q.** And the viscosity ([1]; 298.15 K)?
**A.** 441.5 ± 170 mPa·s

**Q.** What about the mass density ([1]; 303.15 K) of the same compound?
**A.** 1163.76 ± 1.5 kg/m3

**Q.** What about the viscosity ([1]; 303.15 K) of the same compound?
**A.** 302.5 ± 95 mPa·s

**Q.** What about the mass density ([1]; 308.15 K) of the same compound?
**A.** 1160.28 ± 1.5 kg/m3

**Q.** And the viscosity ([1]; 308.15 K)?
**A.** 214.6 ± 54 mPa·s

**Q.** And the mass density ([1]; 313.15 K)?
**A.** 1156.8 ± 1.4 kg/m3

**Q.** What about the viscosity ([1]; 313.15 K) of the same compound?
**A.** 157.2 ± 31 mPa·s

**Q.** And the mass density ([1]; 318.15 K)?
**A.** 1153.33 ± 1.4 kg/m3

**Q.** And the viscosity ([1]; 318.15 K)?
**A.** 118.3 ± 18 mPa·s

**Q.** What about the mass density ([1]; 323.15 K) of the same compound?
**A.** 1149.87 ± 1.4 kg/m3

**Q.** And the viscosity ([1]; 323.15 K)?
**A.** 91.22 ± 9.6 mPa·s

**Q.** For `CCCO` [propan-1-ol] + CCOS(=O)(=O)[O-].CC[NH+]=C(N(C)C)N(C)C, which mass density ([2]; 293.15 K) is on record?
**A.** 803.49 ± 0.43 kg/m3

**Q.** And the viscosity ([2]; 293.15 K)?
**A.** 2.164 ± 0.17 mPa·s

**Q.** And the mass density ([2]; 298.15 K)?
**A.** 799.49 ± 0.44 kg/m3

**Q.** What about the viscosity ([2]; 298.15 K) of the same compound?
**A.** 1.948 ± 0.16 mPa·s

**Q.** And the mass density ([2]; 303.15 K)?
**A.** 795.46 ± 0.45 kg/m3

**Q.** And the viscosity ([2]; 303.15 K)?
**A.** 1.707 ± 0.14 mPa·s

**Q.** What about the mass density ([2]; 308.15 K) of the same compound?
**A.** 791.39 ± 0.45 kg/m3

**Q.** What about the viscosity ([2]; 308.15 K) of the same compound?
**A.** 1.525 ± 0.12 mPa·s

**Q.** And the mass density ([2]; 313.15 K)?
**A.** 787.29 ± 0.46 kg/m3

**Q.** What about the viscosity ([2]; 313.15 K) of the same compound?
**A.** 1.366 ± 0.11 mPa·s

**Q.** And the mass density ([2]; 318.15 K)?
**A.** 783.14 ± 0.46 kg/m3

**Q.** What about the viscosity ([2]; 318.15 K) of the same compound?
**A.** 1.228 ± 0.099 mPa·s

**Q.** What about the mass density ([2]; 323.15 K) of the same compound?
**A.** 778.93 ± 0.47 kg/m3

**Q.** What about the viscosity ([2]; 323.15 K) of the same compound?
**A.** 1.107 ± 0.089 mPa·s

**Q.** With `CCCO` [propan-1-ol] as the compound, how does the mass density ([1]; 293.15 K) read?
**A.** 803.49 ± 0.43 kg/m3

**Q.** What about the viscosity ([1]; 293.15 K) of the same compound?
**A.** 2.164 ± 0.087 mPa·s

**Q.** What about the mass density ([1]; 298.15 K) of the same compound?
**A.** 799.49 ± 0.44 kg/m3

**Q.** What about the viscosity ([1]; 298.15 K) of the same compound?
**A.** 1.948 ± 0.078 mPa·s

**Q.** And the mass density ([1]; 303.15 K)?
**A.** 795.46 ± 0.45 kg/m3

**Q.** What about the viscosity ([1]; 303.15 K) of the same compound?
**A.** 1.707 ± 0.069 mPa·s

**Q.** What about the mass density ([1]; 308.15 K) of the same compound?
**A.** 791.39 ± 0.45 kg/m3

**Q.** And the viscosity ([1]; 308.15 K)?
**A.** 1.525 ± 0.061 mPa·s

**Q.** What about the mass density ([1]; 313.15 K) of the same compound?
**A.** 787.29 ± 0.46 kg/m3

**Q.** And the viscosity ([1]; 313.15 K)?
**A.** 1.366 ± 0.055 mPa·s

**Q.** And the mass density ([1]; 318.15 K)?
**A.** 783.14 ± 0.46 kg/m3

**Q.** What about the viscosity ([1]; 318.15 K) of the same compound?
**A.** 1.228 ± 0.05 mPa·s

**Q.** And the mass density ([1]; 323.15 K)?
**A.** 778.93 ± 0.47 kg/m3

**Q.** What about the viscosity ([1]; 323.15 K) of the same compound?
**A.** 1.107 ± 0.045 mPa·s

**Q.** For `CCO` [ethanol], which mass density ([1]; 293.15 K) is on record?
**A.** 789.62 ± 0.46 kg/m3

**Q.** And the viscosity ([1]; 293.15 K)?
**A.** 1.177 ± 0.047 mPa·s

**Q.** What about the mass density ([1]; 298.15 K) of the same compound?
**A.** 785.25 ± 0.47 kg/m3

**Q.** And the viscosity ([1]; 298.15 K)?
**A.** 1.071 ± 0.043 mPa·s

**Q.** And the mass density ([1]; 303.15 K)?
**A.** 780.89 ± 0.47 kg/m3

**Q.** What about the viscosity ([1]; 303.15 K) of the same compound?
**A.** 0.978 ± 0.04 mPa·s

**Q.** And the mass density ([1]; 308.15 K)?
**A.** 776.52 ± 0.48 kg/m3

**Q.** What about the viscosity ([1]; 308.15 K) of the same compound?
**A.** 0.895 ± 0.036 mPa·s

**Q.** What about the mass density ([1]; 313.15 K) of the same compound?
**A.** 772.12 ± 0.49 kg/m3

**Q.** What about the viscosity ([1]; 313.15 K) of the same compound?
**A.** 0.822 ± 0.033 mPa·s

**Q.** What about the mass density ([1]; 318.15 K) of the same compound?
**A.** 767.71 ± 0.49 kg/m3

**Q.** What about the viscosity ([1]; 318.15 K) of the same compound?
**A.** 0.756 ± 0.031 mPa·s

**Q.** And the mass density ([1]; 323.15 K)?
**A.** 763.26 ± 0.5 kg/m3

**Q.** And the viscosity ([1]; 323.15 K)?
**A.** 0.698 ± 0.028 mPa·s
